In PubChem BioAssay (NCI) one finds TGI and GI50 data, which are given here for 23 compounds.

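Briefly, cells in 96-well plates were exposed to five compound concentrations for 48 h, and endpoints were estimated by linear interpolation. The concentration for 50% growth inhibition is given as GI50. Definition used: TGI = concentration required for complete inhibition of growth.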 Where a SMILES comes first, the peptide text is derived from it. Bridges are numbered along the chain shown (N, C = ends). Roman numbers before positions name the chains, in order. [ ]: non-standard residue; d: D form. The star is where a group is joined. Quinoxaline2carbonyl = O=C(c1cnc2ccccc2n1)*; NMeV = CN[CH](C(=O)O)C(C)C; NMeC = CN[CH](CS)C(=O)O

Assay in all cases: growth of human tumour cells (NCI), 48 h
Experiment [1] has as its system SK-MEL-2 melanoma.
The subject of experiment [2] is SK-MEL-28 melanoma.
In experiment [3] the test system is RXF 393 renal.
The test system of experiment [4] is UO-31 renal.
Experiment [5] deals with UACC-257 melanoma.
In experiment [6] the test system is SW-620 colon.
The subject of experiment [7] is RPMI-8226 leukemia.
Experiment [8] deals with SN12C renal.
The subject of experiment [9] is MOLT-4 leukemia.
Experiment [10] concerns HCT-15 colon.

On to `CNS(=O)(=O)NNS(=O)(=O)c1ccc(Cl)cc1`, for which the TGI in [1], in [2], in [3], in experiment [4], in experiment [5] and in experiment [6] was above 100 µM each time. For the same compound, the TGI in experiment [7], in experiment [8] and in experiment [9] was above 100 µM each time.

In the case of `CC1NC(=O)C(NC(=O)c2cnc3ccccc3n2)COC(=O)C(C(C)C)N(C)C(=O)C2CSSCC(C(=O)N(C)C(C(C)C)C(=O)OCC(NC(=O)c3cnc4ccccc4n3)C(=O)NC(C)C(=O)N2C)N(C)C1=O` (configuration not stated) (I: Quinoxaline2carbonyl-SA[NMeC][NMeV] / II: Quinoxaline2carbonyl-SA[NMeC][NMeV]; ester I:1-II:C, I:C-II:1; disulfide I:3-II:3; configuration not given here), the TGI is below 0.01 µM in [1]; 0.365 µM in experiment [10]; below 0.01 µM in experiment [2]; below 0.01 µM in experiment [3]; 0.0162 µM in [5]; 2.98 µM in [6]. For the same compound, the results for the TGI in experiment [7] and in experiment [9] were below 0.01 µM and above 4.64 µM, respectively.

Turning to `CN(CC(N)=O)C(=O)N(CCCl)N=O`, the TGI in [1], in [10], in experiment [2], in [3], in [4] and in experiment [5] was above 100 µM in each case. Further, the TGI in experiment [6], in [7], in [8] and in [9] was above 100 µM each time.

Regarding `C#CCOc1cccc(Nc2ncnc3c(NC(=O)CCl)cccc23)c1`, the GI50 was 21.1 µM in experiment [1]; 20.2 µM in experiment [10]; 36.4 µM in experiment [2]; 27.3 µM in [3]; 15.5 µM in experiment [4]; 45 µM in experiment [5]. In addition, the GI50 in [6] was 20.3 µM; in [7] it was 20.9 µM; in [8], 29.5 µM; in [9], 14.4 µM. Further, the TGI in experiment [1] is 60.8 µM; in experiment [10], 72.5 µM; in experiment [2], above 100 µM; in experiment [3], 68.4 µM; in experiment [4] it was 39.2 µM; in [5], above 100 µM. Besides, the TGI is 40.9 µM in experiment [6], 43.9 µM in experiment [7], above 100 µM in [8] and 71.1 µM in [9].

Take `COC(=O)C(C)(C)N=CN(C)C`: the TGI in [1], in experiment [10], in [2], in experiment [3], in [4] and in experiment [5] was above 100 µM throughout. Further, the TGI in experiment [6], in experiment [8] and in [9] was above 100 µM each time.

In the case of `CCN1C(=O)N(CC)C2C1NN=c1s/c(=C3\C(=O)N(CCc4ccccc4)c4ccccc43)c(=O)n12` (configuration not stated), the GI50 in experiment [1] is 1.26 µM; in experiment [10] it was 0.351 µM; in experiment [2], 1.2 µM; in experiment [3] it was 0.262 µM; in experiment [4], 1.03 µM; in [5] it was 3.77 µM. Besides, the GI50 in [6] is 0.492 µM; in experiment [7], 0.608 µM; in experiment [8] it was 1.34 µM; in [9] it was 1.49 µM. In addition, the TGI was 12.3 µM in experiment [1]; above 34.2 µM in [10]; above 28.4 µM in experiment [2]; 1.01 µM in [3]; above 35.2 µM in experiment [4]; above 100 µM in experiment [5]. For the same compound, the TGI in experiment [6] and in [9] was above 100 µM throughout.

As to `O=C(O)COc1c(Cl)cc(Cl)c2cccnc12`, the TGI in experiment [1], in [10], in experiment [2], in experiment [3], in experiment [4] and in experiment [5] was above 100 µM each time. In addition, the TGI in experiment [6], in experiment [7], in experiment [8] and in experiment [9] was above 100 µM in each case.

As to `CC1CN1c1c(C(=O)/C=C/c2ccccc2)c(-c2ccccc2)nn(C)c1=O` (configuration not stated), the TGI is 29.9 µM in [1]; 27.4 µM in experiment [10]; 47.5 µM in [2]; 41.4 µM in [3]; 29.1 µM in [4]; 36.4 µM in [5]. For the same compound, the TGI in experiment [6] was found to be 39.8 µM; in experiment [8] it was 32.6 µM; in [9], 52.7 µM.

With `CC(=O)Oc1ccccc1C(=O)/C=C/c1cccc([N+](=O)[O-])c1`, the GI50 in experiment [1] is 15.1 µM; in experiment [2] it was 5.56 µM; in experiment [3] it was 1.88 µM; in experiment [4], 1.52 µM; in experiment [5], 6.99 µM; in experiment [6], 1.87 µM. For the same compound, the GI50 was 3.18 µM in [7], 2.53 µM in experiment [8] and 3.15 µM in [9]. Also, the TGI in experiment [1] worked out at 29.4 µM; in experiment [2] it was 21.2 µM; in [3] it was 3.48 µM; in experiment [4], 2.96 µM; in [5], 20.8 µM; in [6] it was 3.9 µM. For the same compound, the TGI in experiment [7] was 16.1 µM; in experiment [8], 6.79 µM; in experiment [9], above 100 µM.

As to `CN(C)c1ccc(/C=C2\C=Cc3ccccc32)cc1`, the TGI in experiment [1] is above 100 µM; in experiment [10] it was above 100 µM; in [2], above 100 µM; in experiment [3], 84.4 µM; in [4], above 100 µM; in experiment [6], above 100 µM. Moreover, the TGI in experiment [7], in experiment [8] and in experiment [9] was above 100 µM each time.

Take `Cn1cncc1CC1COC(=O)C1C(O)c1ccccc1` (configuration not stated): the TGI in experiment [1], in experiment [10], in [2], in experiment [3], in experiment [5] and in [6] was above 100 µM each time. Also, the TGI in experiment [7], in experiment [8] and in experiment [9] was above 100 µM in each case.

For the compound `CCCCCCCCCCCCCP(=O)(O)NCC(N)=O`, the TGI is above 100 µM in [1]; above 100 µM in [10]; above 100 µM in experiment [2]; above 100 µM in [3]; 90.4 µM in experiment [4]; above 100 µM in experiment [5]. For the same compound, the TGI in experiment [6], in experiment [7] and in [8] was above 100 µM throughout.

For `O=C([CH-]C(=O)c1ccccc1)c1ccccc1.O=C([CH-]C(=O)c1ccccc1)c1ccccc1.[OH-].[OH-].[Ti+4]`, the GI50 was 76.5 µM in [1]; above 100 µM in experiment [10]; 6.85 µM in [3]; 59.3 µM in experiment [4]; above 100 µM in experiment [5]; 49 µM in experiment [6]. The GI50 in [7] is 41.3 µM; in [8] it was above 100 µM; in [9], 54.7 µM. Also, the TGI in experiment [1] is above 100 µM; in experiment [10] it was above 100 µM; in experiment [3] it was 25.9 µM; in [4] it was above 100 µM; in experiment [5], above 100 µM; in experiment [6] it was above 100 µM. Further, the TGI in experiment [7], in experiment [8] and in experiment [9] was above 100 µM throughout.

For `C/C=C(\C)c1cc(O)c(C)c2c1Oc1cc(O)c(Cl)c(C)c1C(=O)O2`, the TGI in [1] worked out at 41.8 µM; in [2], 72.2 µM; in experiment [3], 34.1 µM; in [4], 27.2 µM; in experiment [5], 44.2 µM; in [6] it was 37.4 µM. The same compound returned a TGI in experiment [8] of 30.9 µM.

For `CN1CCN(CC(O)COc2c(Br)c(Br)c(Br)c3c2OC(C)(C)C3)CC1` (configuration not stated), the GI50 in experiment [1] was 10.2 µM; in experiment [10], 2.79 µM; in experiment [2], 1.85 µM; in experiment [3], 3.3 µM; in experiment [4], 9.24 µM; in experiment [6], 3.16 µM. For the same compound, the GI50 was 1.8 µM in [7] and 11.8 µM in experiment [8]. Moreover, the TGI worked out at 25.2 µM in experiment [1]; 6.16 µM in experiment [10]; 3.48 µM in experiment [2]; 6.53 µM in experiment [3]; 31 µM in [4]; 8.81 µM in experiment [6]. Further, the figures for the TGI in experiment [7] and in [8] were 4.44 µM and 31.6 µM, respectively.

Consider `Fc1cccc(C2SCc3nc4ccccc4n32)c1F` (configuration not stated), for which the TGI in experiment [1] is 76.4 µM; in experiment [10], above 100 µM; in experiment [3], above 100 µM; in experiment [4], above 100 µM; in experiment [5], above 100 µM; in experiment [6] it was above 100 µM. The results for the TGI in [7], in [8] and in experiment [9] were above 100 µM, above 100 µM and 68.5 µM, respectively.

`COc1ccc(C(Cl)=C(c2ccc(OCCN(C)C)cc2)c2ccc(OCCN(C)C)cc2)cc1`: the TGI in experiment [1] is 3.12 µM; in [10], 3.58 µM; in [2] it was 3.11 µM; in experiment [3], 2.65 µM; in [4], 3.31 µM; in experiment [6], 2.75 µM. The TGI in experiment [7] is 3.83 µM; in [8], 11.7 µM; in experiment [9], 6.04 µM.

As to `Cc1ccc(C2=Nc3ccccc3SC(c3cccc([N+](=O)[O-])c3)C2)cc1` (configuration not stated), the TGI is above 100 µM in experiment [1]; above 100 µM in experiment [10]; above 100 µM in experiment [2]; 72.2 µM in [3]; 23 µM in [4]; above 100 µM in experiment [5]. Besides, the results for the TGI in experiment [6], in experiment [7] and in experiment [8] were above 100 µM, 5.19 µM and above 100 µM, respectively.

For the compound `COCCOCOc1ccc(OCOCCOC)c2c1C(=O)c1ccccc1C2=O`, the TGI in [1] was above 100 µM; in [10], above 100 µM; in experiment [2], above 100 µM; in experiment [3], above 100 µM; in experiment [4] it was above 100 µM; in experiment [5], above 88.9 µM. Besides, the TGI in experiment [6], in [8] and in experiment [9] was above 100 µM throughout.

For the compound `CN(C)c1ccc(N=Nc2ccncc2)cc1`, the TGI in experiment [10], in [2], in experiment [3], in [4], in experiment [5] and in experiment [6] was above 100 µM throughout. Further, the TGI in experiment [7], in [8] and in experiment [9] was above 100 µM throughout.

Take `Cc1ccc(S(=O)OC2C3CC4CC(C3)CC2C4)cc1` (configuration not stated): the TGI in [10], in [2], in [3], in experiment [4], in experiment [5] and in [6] was above 100 µM throughout. For the same compound, the TGI in [7], in experiment [8] and in experiment [9] was above 100 µM throughout.

Regarding `COc1ccc2c(c1OC)C(=O)OC2C1c2c(c([N+](=O)[O-])c3c(c2OC)OCO3)CCN1C` (configuration not stated), the GI50 in [1], in [10], in experiment [2], in experiment [3], in [4] and in experiment [5] was above 100 µM in each case. Besides, the GI50 in experiment [6] and in experiment [8] was above 100 µM each time. The TGI in [1], in [10], in [2], in experiment [3], in [4] and in experiment [5] was above 100 µM in each case. For the same compound, the TGI in experiment [6] and in experiment [8] was above 100 µM in each case.

Consider `COC1O[C@@H]2C[C@H]3C(C)(C)CCC[C@]3(C)C3=CCCC1[C@@]32C` (some centres not stated), for which the GI50 in [10], in experiment [2], in [3], in experiment [4], in [5] and in [6] was above 100 µM each time. Also, the GI50 in experiment [7], in experiment [8] and in experiment [9] was above 100 µM in each case. Besides, the TGI in [10], in [2], in experiment [3], in experiment [4], in experiment [5] and in [6] was above 100 µM each time. For the same compound, the TGI in experiment [7], in experiment [8] and in [9] was above 100 µM throughout.
